The results in this text go back to patent publication US12214036B2, “Combination therapy comprising AXL/MER and PD-1/PD-L1 inhibitors” (Incyte Corporation, priority 2020, dated 2025).

“Also recorded” adds a separate entry of the source.

For the assay, the system named is human PBMCs co-cultured with H1299 cells. In words: H1299 / PBMC co-culture cytokine assay. It counts as cell-based. The conditions noted are these: 4 days, stimulated PBMCs + H1299, FIG. 6. The protocol:
The ability of Compound 1 to cooperate with checkpoint blockade to further boost antitumor responses was evaluated. H1299 lung cancer cells were co-cultured with stimulated human PBMCs treated with Compound 1, anti-human programmed cell death (PD)-1 antibody retifanlimab or the combination, and production of proinflammatory cytokines was assessed in two different experiments (FIG. 6).
H1299 cells were co-cultured with human PBMCs, each at 4 or 16×10^4 cells/mL in RPMI containing 10% FBS, 100 U/mL of penicillin-streptomycin (ThermoFisher Scientific; #15140-122) and 1× beta-mercaptoethanol (ThermoFisher Scientific; #21985-023). Compound 1 or retifanlimab were added as single agents or in combination to the cells. Anti-CD3 (BD Biosciences #555336), anti-CD28 (BD Biosciences #555725) or SEA (Toxin Technology, Sarasota, Fla.; #AT101red) were added at a final concentration of 1 μg/mL, 0.5 μg/mL or 100 ng/mL, respectively, to stimulate cell growth. Cultures were incubated at 37° C. in 5% CO2 incubator for 4 days. The supernatant was collected for cytokine analysis using a multiplex assay system (custom human ProcartaPlex Luminex kit, ThermoFisher Scientific; #PPX-15-MXRWE6P).

As for “retifanlimab: humanized, IgG4 monoclonal antibody that binds to human PD-1; heavy chain SEQ ID NO:2, light chain SEQ ID NO:3”, the proinflammatory cytokine production result is recorded as “induced these cytokines in a subset of donors; also recorded: induction of proinflammatory cytokines”.
